# Results from patent US8158606B2, “β-L-2′-deoxynucleosides for the treatment of resistant HBV strains and combination therapies” (priority 2002, dated 2012).
# “And” between values parts separate entries of the source, which are not always exact repeats. Equal values may be shown once. Where a name gives a salt, the structure may show the parent alone. Read-outs that look alike come from different tables or passages of the source.
# How the values were obtained:
# [1] = Log P study, octanol-1 / phosphate buffer; conditions: for log P (octanol/water): octanol-1 / 0.02 M phosphate buffer pH 7.2; for P (B/A): octanol-1 (B) / 0.02 M phosphate buffer pH 7.2 (A), Study 1 and Study 2
# Description: To 1 mL of this solution, 1 mL of octanol-1 (B) saturated with 0.02 M phosphate buffer solution (A) was added. The resultant mixture was shaken and centrifuged; three samples from each phase was collected and analyzed by HPLC, as shown in Table 10.
# The solution was then saturated with octanol-1 (B). To 1 mL of this solution, 1 mL of octanol-1 (B) saturated with 0.02 M phosphate buffer solution (A) was added. The resultant mixture was shaken and centrifuged; three samples from each phase was collected and analyzed by HPLC, as shown in Table 11.
# [2] = Solubility study in water (HPLC calibration)
# [3] = format: physicochemical; conditions: octanol-1 (B) / MilliQ water pH 6.5 (A′), Study 1 and Study 2, listed as L-dC-5′-valinyl ester hydrochloride
# Description: (§1) To 1 mL of this solution, 1 mL of octanol-1 (B) saturated with MilliQ water (A′) was added.
# as §1
# [4] = Stability study in buffer at pH 7.4, 7.20, 4.5 and 1.2; format: physicochemical; conditions: pH 1.2, no decomposition products detected for up to 23 hours
# [5] = test system: cytosolic extracts of HepG2 cells; experiment: Steady state phosphorylation kinetics in cytosolic extracts; format: biochemical, human; conditions: cytosolic extracts of HepG2 cells as enzyme source
# [6] = target: hepatitis B virus deoxyribonucleic acid (DNA) polymerase (Hepatitis B virus genotype D subtype ayw, UniProt P03156); experiment: biochemical
# [7] = test system: L515M/M552I mutant HBV, cell line MI4; experiment: Antiviral testing in stable HepG2 cell lines, EPA of intracellular nucleocapsids; format: cell-based, hepatitis B virus
# Description: (§2) Recombinant DNA constructs corresponding to these lamivudine-resistant mutants were created by site directed mutagenesis. The test system comprised stable cell lines harboring each of the transfected mutant genomes, as well as a wild-type control HBV genome. The antiviral activity of LdT (telbivudine) and LdC, together with the control drugs lamivudine and PMEA, was determined against the mutant and wild-type HBV genomes in the respective test cell lines.
# (§3) Endogenous Polymerase Assay (EPA) of cell lysate: Cells were grown in 12-well collagen plates to 100% confluency for 3-4 days and cytosolic lysates were prepared in 1 ml of 50 mM Tris-HCl pH 7.4, 150 mM NaCl, 5 mM MgCl2, 0.2% NP-40. EPAs were essentially performed as described (Seifer et al., 1998). […] The immobilized capsids were then washed, endogenous polymerase reactions were initiated in 50 ul reaction volume containing 50 mM Tris-HCl pH7.4, 75 mM NH4Cl, 1 mM EDTA, 20 mM MgCl2, 0.1 mM β-ME, 0.5% NP-40, 100 μM cold dGTP, TTP, dCTP, and 50 nM ^33P-dATP (Perkin Elmer Life Sciences Cat# NEG 612H), and incubated overnight at 37° C. Following digestion with 1 mg/ml of Proteinase K (Roche, Cat#1373196) for 1 h at 37° C., ^33P-labeled HBV DNA was liberated via phenol/chloroform extraction The nucleic acids were finally precipitated with equal volumes 5M NH4-acetate and 2.5 volumes 100% EtOH and separated on a 1% native agarose gel in Tris-borate buffer. Gels were either fixed with 7% TCA, then dried, or blotted onto positively charged nylon membrane (Pall Biodyne Plus Cat#60406) overnight at room temperature via capillary transfer in 0.4 N NaOH. Dried gels/membranes were exposed to a phosphoimager screen (Molecular Dynamics) overnight at room temperature, then scanned (Storm 860, Molecular Dynamics) and quantitated with ImageQuant (Molecular Dynamics) software.
# (§4) 12-well Biocoat collagen I plates (Becton Dickinson Cat#35-4500) are seeded with cells at a density of 0.5-1×10^6 cells per well in 2 ml DMEM containing 5% FBS, 2 mM L-glutamine, 100 I.U. penicillin/100 μg/mL streptomycin, and 0.5 mg/mL G-418.
# (§5) Drug dilutions are prepared freshly in 100% DMSO as 200× stocks. For each experiment, 4 aliquots of each drug dilution series are stored at −20° C. until used. Once cells reach confluency, drug treatment is initiated by adding 10 μL of drug dilution into 2 ml of fresh DMEM+5% FBS. […] The no-drug control well receives only 10 μl of DMSO. Cells are treated every other day with 2 mL of fresh drug/medium for a total of 8 days. Cell lysates are then collected on day 10 as described below:
# (§6) Aspirate media and rinse cell monolayer carefully once with 1 mL of PBS.
# (§7) Add 1 ml of lysis buffer (50 mM Tris-HCl pH 7.5/150 mM NaCl/5 mM MgCl2/0.2% NP-40). Store on ice for 30 min to 4 h.
# (§8) Harvest lysed cells. Transfer to 1.5 ml microfuge tubes.
# (§9) Clarify lysate by spinning for 5 min at RT and 14,000 rpm.
# (§10) Transfer clarified lysate to fresh tubes. Snap-freeze on dry-ice and store at −80° C. until ready to continue with endogenous polymerase assays essentially as described above.
# (§11) EC50's were generated from the phosphorimager data by curve fitting using Xlfit software.
# [8] = test system: L515M/M552V mutant HBV, cell line MV5/B3; experiment: as above; format: cell-based, hepatitis B virus
# Description: as §2, §3, §4, §5, §6, §7, §8, §9, §10, §11
# [9] = test system: M552I mutant HBV, cell line I2; experiment: as above; format: cell-based, hepatitis B virus
# Description: as §2, §3, §4, §5, §6, §7, §8, §9, §10, §11
# [10] = test system: M552V mutant HBV, cell line V1/C9; experiment: as above; format: cell-based, hepatitis B virus; conditions: for EC50: cell line V1/C9, mean ± SD of three to four experiments
# Description: as §2, §3, §4, §5, §6, §7, §8, §9, §10, §11
# [11] = test system: wild-type HBV (ayw), cell line WT3/C1; experiment: as above; format: cell-based, hepatitis B virus; conditions: WT (ayw); for EC50: cell line WT3/C1, mean ± SD of three to four experiments
# Description: as §2, §3, §4, §5, §6, §7, §8, §9, §10, §11
# hepatitis B virus = conditions: clinical studies; cited from earlier work
# [12] = listed as 3′-valinyl ester hydrochloride of β-L-dC
# [13] = Hepatitis B virus, HepG2, L515M/M552I, cell line MI4, mean ± SD of three to four experiments, read-out: EC50
# [14] = Hepatitis B virus, HepG2, L515M/M552V, cell line MV5/B3, mean ± SD of three to four experiments, read-out: EC50
# [15] = Hepatitis B virus, HepG2, M552I, cell line I2, mean ± SD of three to four experiments, read-out: EC50
# [16] = Hepatitis B virus, HepG2, M552V
# hepatitis B virus deoxyribonucleic acid (DNA) polymerase, sequence (P03156 whole entry): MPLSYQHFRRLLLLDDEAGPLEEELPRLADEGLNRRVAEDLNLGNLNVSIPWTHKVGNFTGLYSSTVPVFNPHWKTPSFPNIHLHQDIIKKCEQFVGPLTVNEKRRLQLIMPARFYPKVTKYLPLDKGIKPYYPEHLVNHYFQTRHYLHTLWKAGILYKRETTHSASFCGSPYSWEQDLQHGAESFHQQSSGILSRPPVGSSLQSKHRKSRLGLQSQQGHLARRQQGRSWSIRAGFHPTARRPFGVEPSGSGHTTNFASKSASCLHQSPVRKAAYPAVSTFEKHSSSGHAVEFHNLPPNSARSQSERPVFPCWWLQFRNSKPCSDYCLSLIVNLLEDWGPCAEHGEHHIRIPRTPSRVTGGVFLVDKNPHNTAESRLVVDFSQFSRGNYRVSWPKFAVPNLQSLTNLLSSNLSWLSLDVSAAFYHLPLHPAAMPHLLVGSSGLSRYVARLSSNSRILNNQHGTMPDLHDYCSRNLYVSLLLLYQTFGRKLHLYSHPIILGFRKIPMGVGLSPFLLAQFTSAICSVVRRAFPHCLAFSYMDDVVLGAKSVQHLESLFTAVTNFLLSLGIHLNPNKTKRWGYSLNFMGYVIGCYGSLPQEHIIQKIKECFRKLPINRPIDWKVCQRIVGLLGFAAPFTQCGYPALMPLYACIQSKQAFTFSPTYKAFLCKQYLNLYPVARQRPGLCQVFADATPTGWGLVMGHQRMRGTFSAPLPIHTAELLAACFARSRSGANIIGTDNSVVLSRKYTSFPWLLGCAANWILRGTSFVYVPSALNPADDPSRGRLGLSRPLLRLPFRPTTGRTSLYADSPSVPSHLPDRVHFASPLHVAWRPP
compound,measurement,setting,value
"CC(=O)OC[C@@H]1O[C@H](n2ccc(N)nc2=O)C[C@H]1OC(C)=O [3′5′-diacetyl-L-dC, 3′,5′-Di-O-acetyl-2′-deoxy-β-L-cytidine]",log P (octanol/water),[1],−0.74
"CC(C)[C@H](N)C(=O)O[C@@H]1C[C@@H](n2ccc(N)nc2=O)O[C@H]1CO.Cl [3′-val-L-dC, 3′-valinyl ester hydrochloride of β-L-dC]",P (B/A),[1]; listed as L-dC-3′-valine ester hydrochloride,0.0296 and 0.0293
same,log P (octanol/water),[1],−1.53
same,Solubility (g/L),[2],>408 g/L
same,Solubility (g/L),[2]; [12],> 408 g/L
same,Solubility (mol/L),[2]; [12],greater than 1.023 mol/L
"CC(C)[C@H](N)C(=O)OC[C@@H]1O[C@H](n2ccc(N)nc2=O)C[C@H]1O [5′-val-L-dC, 5′-L-valine ester of 2′-deoxy-β-L-cytidine hydrochloride]",P′ (B/A′),[3],1.54 × 10^−3 and 2.04 × 10^−3
same,stability in words,[4],fully stable
"Nc1ccn([C@H]2C[C@H](O)[C@@H](CO)O2)c(=O)n1 [D-dC, D-Deoxycytidine]",P (B/A),[1],0.039
same,log P (octanol/water),[1],−1.41
same,maximum initial velocity (Vmax) of phosphorylation,[5],2.15 nmol/min/mg protein
same,Solubility (g/L),[2],272 g/L
same,Solubility (mol/L),[2],1.03 mol/L
same,Concentration (mol/L) of single samples,[2]; 1st-3rd HPLC sample of the saturated (D-dC) or most concentrated available solution,1.07 mol/L and 1.08 mol/L and 0.96 mol/L
"O=c1ccn([C@@H]2C[C@@H](O)[C@H](COP(=O)(O)OP(=O)(O)OP(=O)(O)O)O2)c(=O)[nH]1 [L-dU-TP, β-L-2′-deoxyuridine 5′-triphosphate]",IC50,[6],5.26 µM
Nc1ccn([C@@H]2C[C@@H](O)[C@H](CO)O2)c(=O)n1 [LdC-HCl],EC50,"[7]; L515M/M552I, cell line MI4, mean ± SD of three to four experiments, read-out: EC50",≥ 1000 µM
same,EC50,"[8]; L515M/M552V, cell line MV5/B3, mean ± SD of three to four experiments, read-out: EC50",777 ± 99 µM
same,EC50,"[9]; M552I, cell line I2, mean ± SD of three to four experiments, read-out: EC50",≥ 1000 µM
same,EC50,[10]; M552V,0.36 ± 0.13 µM
same,EC50,[11],0.18 ± 0.09 µM
"Nc1ncnc2c1ncn2CCOCP(=O)(O)O [PMEA, 9-{2-(phosphonomethoxy)ethyl}adenine, reference compound]",EC50,[7]; [13],1.49 ± 0.3 µM
same,"activity against the mutant, in words",[7]; L515M/M552I double mutant,retained significant activity
same,X Resist. (fold resistance),"[7]; L515M/M552I, EC50 mutant divided by EC50 wild-type",3.6 ± 1.1
same,EC50,[8]; [14],0.62 ± 0.3 µM
same,"activity against the mutant, in words",[8]; L515M/M552V double mutant,retained significant activity
same,X Resist. (fold resistance),"[8]; L515M/M552V, EC50 mutant divided by EC50 wild-type",3.3 ± 2.9
same,EC50,[9]; [15],1.6 ± 1.12 µM
same,"activity against the mutant, in words",[9]; M552I single mutant,retained significant activity
same,X Resist. (fold resistance),"[9]; M552I, EC50 mutant divided by EC50 wild-type",4.6 ± 3.0
same,EC50,[10]; [16],1.02 ± 0.22 µM
same,"activity against the mutant, in words",[10]; M552V single mutant,retained significant activity
same,X Resist. (fold resistance),"[10]; M552V, EC50 mutant divided by EC50 wild-type",3.8 ± 2.3
same,EC50,"[11]; Hepatitis B virus, HepG2",0.33 ± 0.17 µM
same,X Resist. (fold resistance),[11]; EC50 mutant divided by EC50 wild-type,1
"Cc1cn([C@H]2C[C@H](O)[C@@H](CO)O2)c(=O)[nH]c1=O [Thd, D-thymidine]",maximum initial velocity (Vmax) of phosphorylation,[5],1.26 nmol/min/mg protein
"Nc1ccn([C@@H]2CS[C@H](CO)O2)c(=O)n1 [lamivudine, (−)-enantiomer of BCH-189 (2′,3′-dideoxy-3′-thiacytidine), reference compound]",EC50,"[7]; Hepatitis B virus, HepG2, L515M/M552I double mutant",> 1000 µM
same,EC50,[7]; [13],≥ 1000 µM
same,EC50,"[8]; Hepatitis B virus, HepG2, L515M/M552V double mutant",> 1000 µM
same,EC50,[8]; [14],≥ 1000 µM
same,EC50,"[9]; Hepatitis B virus, HepG2, M552I single mutant",> 1000 µM
same,EC50,[9]; [15],≥ 1000 µM
same,EC50,[10]; [16],0.96 ± 0.36 µM
same,EC50,"[11]; Hepatitis B virus, HepG2",0.05 ± 0.03 µM
Interferon alpha-2b,patients with no evidence of the hepatitis B virus in their blood over time,hepatitis B virus,45%
